Results on seven compounds are retold here after patent publication US11040987B2 (TenNor Therapeutics Limited, priority 2019, dated 2021).

SMILES strings stand for the structures. In brackets after ≈: the same amount, converted by molar mass.

Holding throughout (assay type): cell-based
For assay [1], the system named is A.b TNP 41709. The assay can be described thus: MIC against A. baumannii clinical isolates, alone and in combination with antibiotics. To be noted: for MIC: Acinetobacter baumannii, TNP41709, Compounds alone, read-out: MIC A.b TNP 41709.
Assay [2] concerns A.b TNP 41708. Described as above. To be noted: for MIC: Acinetobacter baumannii, TNP41708, read-out: MIC A.b TNP 41708. As for the experimental part: (§1) Minimum inhibitory concentration (MIC) is determined by a broth microdilution method according to the recommendation of the Clinical and Laboratory Standards Institute (CLSI) with minor modification. […] Strains of an ESKAPE panel (E. faecium ATCC 700221, S. aureus ATCC 29213, K. pneumoniae ATCC 43816, A. baumannii ATCC 19606, P. aeruginosa ATCC 27853 and Escherichia coli ATCC 25922) were obtained originally from the American Type Culture Collection (ATCC) and used for MIC determinations of compounds. The bacteria inoculum in the test is […].

The subject of assay [3] is A.b TNP 41704. Described as above. To be noted: for MIC: Acinetobacter baumannii, TNP41704, Compounds alone, read-out: MIC A.b TNP 41704.
In assay [4] the test system is S. aureus ATCC 29213. The assay can be described thus: MIC determination, broth microdilution, ESKAPE panel. The note with it: Staphylococcus aureus, ATCC29213; iron-depleted cation-adjusted Mueller-Hinton broth, 2,2-dipyridyl 160 μM; 37° C., 18-20 hours; read-out: MIC S. aureus ATCC 29213. The method, then:
as §1
(In broth dilution the organism is exposed to a series of concentrations in liquid medium.)

In assay [5] the test system is Escherichia coli ATCC 25922. The description is as above. The note with it: ATCC25922, iron-depleted cation-adjusted Mueller-Hinton broth, 2,2-dipyridyl 160 μM, 37° C., 18-20 hours, read-out: MIC E. coli ATCC 25922. The method, then:
as §1

Assay [6] relates to E. faecium ATCC 700221. The description is as above. The note with it: Enterococcus faecium, ATCC700221; iron-depleted cation-adjusted Mueller-Hinton broth, 2,2-dipyridyl 160 μM; 37° C., 18-20 hours; read-out: MIC E. faecium ATCC 700221. The method, then: as §1
For assay [7], the system named is A. baumannii ATCC 19606. The assay is described as above. The note with it: Acinetobacter baumannii, ATCC19606; iron-depleted cation-adjusted Mueller-Hinton broth, 2,2-dipyridyl 160 μM; 37° C., 18-20 hours; read-out: MIC A. baumannii ATCC 19606. The method, then:
as §1

Assay [8] deals with P. aeruginosa ATCC 27853. The assay is described as above. To be noted: Pseudomonas aeruginosa, ATCC27853; iron-depleted cation-adjusted Mueller-Hinton broth, 2,2-dipyridyl 160 μM; 37° C., 18-20 hours; read-out: MIC P. aeruginosa ATCC 27853. As for the experimental part: as §1
Assay [9] relates to K. pneumoniae ATCC 43816. The assay is described as above. To be noted: Klebsiella pneumoniae, ATCC43816; iron-depleted cation-adjusted Mueller-Hinton broth, 2,2-dipyridyl 160 μM; 37° C., 18-20 hours; read-out: MIC K. pneumoniae ATCC 43816. As for the experimental part:
as §1

On to `C[C@]1(/C=N/NC(=O)Cc2ccc(O)c(O)c2)[C@H](C(=O)O)N2C(=O)C[C@H]2S1(=O)=O` [Example 20, (2S,3R,5R)-3-((E)-(2-(2-(3,4-dihydroxyphenyl)acetyl)hydrazono)methyl)-3-methyl-7-oxo-4-thia-1-azabicyclo[3.2.0]heptane-2-carboxylic acid 4,4-dioxide], for which the MIC in assay [1] was more than 128 µg/mL; in assay [2], more than 128 µg/mL; in assay [3] it was more than 128 µg/mL; in [4], 32 µg/mL (≈ 77.8 µM); in assay [5], more than 128 µg/mL; in [6], more than 128 µg/mL. For the same compound, the values for the MIC in [7], in [8] and in assay [9] were 64 µg/mL (≈ 156 µM), more than 128 µg/mL and more than 128 µg/mL, respectively. Also, the “MIC A.b TNP 41709” value in assay [1] (Compounds + meropenem (1:1)) amounted to 8 µg/mL; in assay [1] (Compounds + sulbactam (1:1)), 16 µg/mL. The “MIC A.b TNP 41708” value in assay [2] (Compounds + meropenem (1:1)) and in assay [2] (Compounds + sulbactam (1:1)) was 8 µg/mL in each case. Moreover, the figures for the “MIC A.b TNP 41704” value in [3] (Compounds + meropenem (1:1)) and in [3] (Compounds + sulbactam (1:1)) were 8 µg/mL and 4 µg/mL, respectively.

Take `C[C@]1(/C=N/NC(=O)c2cccc(O)c2O)[C@H](C(=O)O)N2C(=O)C[C@H]2S1(=O)=O` [Example 28, (2S,3R,5R)-3-((E)-(2-(2,3-dihydroxybenzoyl)hydrazono)methyl)-3-methyl-7-oxo-4-thia-1-azabicyclo[3.2.0]heptane-2-carboxylic acid 4,4-dioxide]: the MIC in [1], in assay [2], in [3], in assay [4], in assay [5] and in assay [6] was more than 128 µg/mL throughout. Moreover, the MIC in [7], in assay [8] and in assay [9] was more than 128 µg/mL each time. In addition, the entries for the “MIC A.b TNP 41709” value in assay [1] (Compounds + meropenem (1:1)) and in assay [1] (Compounds + sulbactam (1:1)) were 4 µg/mL and 8 µg/mL, respectively. Also, the “MIC A.b TNP 41708” value in [2] (Compounds + meropenem (1:1)) and in [2] (Compounds + sulbactam (1:1)) was 8 µg/mL in each case. The figures for the “MIC A.b TNP 41704” value in assay [3] (Compounds + meropenem (1:1)) and in assay [3] (Compounds + sulbactam (1:1)) were 8 µg/mL and 4 µg/mL, respectively.

As for `C[C@]1(/C=N/NC(=O)c2ccc(O)cc2)[C@H](C(=O)O)N2C(=O)C[C@H]2S1(=O)=O` [Example 29, (2S,3R,5R)-3-((E)-(2-(4-hydroxybenzoyl)hydrazono)methyl)-3-methyl-7-oxo-4-thia-1-azabicyclo[3.2.0]heptane-2-carboxylic acid 4,4-dioxide], the MIC in [1], in assay [2], in assay [3], in assay [4], in [5] and in assay [6] was more than 128 µg/mL throughout. Besides, the minimum inhibitory concentration (MIC) in assay [7], in assay [8] and in assay [9] was more than 128 µg/mL each time. Besides, the “MIC A.b TNP 41709” value in assay [1] (Compounds + meropenem (1:1)) and in assay [1] (Compounds + sulbactam (1:1)) was 32 µg/mL in each case. In addition, the “MIC A.b TNP 41708” value in [2] (Compounds + meropenem (1:1)) and in [2] (Compounds + sulbactam (1:1)) was 32 µg/mL throughout. The “MIC A.b TNP 41704” value is 32 µg/mL in assay [3] (Compounds + meropenem (1:1)) and 8 µg/mL in assay [3] (Compounds + sulbactam (1:1)).

Regarding `COc1ccc(C(=O)N/N=C/[C@@]2(C)[C@H](C(=O)O)N3C(=O)C[C@H]3S2(=O)=O)cc1` [Example 35, (2S,3R,5R)-3-((E)-(2-(4-methoxybenzoyl)hydrazono)methyl)-3-methyl-7-oxo-4-thia-1-azabicyclo[3.2.0]heptane-2-carboxylic acid 4,4-dioxide], the MIC in [1] was more than 128 µg/mL; in [2], more than 128 µg/mL; in assay [3], more than 128 µg/mL; in [4], 128 µg/mL (≈ 324 µM); in assay [5], more than 128 µg/mL; in assay [6] it was more than 128 µg/mL. The minimal inhibitory concentration (MIC) in assay [7], in [8] and in assay [9] was more than 128 µg/mL each time. For the same compound, the “MIC A.b TNP 41709” value in [1] (Compounds + meropenem (1:1)) amounted to 32 µg/mL; in [1] (Compounds + sulbactam (1:1)), 4 µg/mL. The “MIC A.b TNP 41708” value in assay [2] (Compounds + meropenem (1:1)) came out at 1 µg/mL; in assay [2] (Compounds + sulbactam (1:1)) it was 16 µg/mL. The “MIC A.b TNP 41704” value was determined as 32 µg/mL in assay [3] (Compounds + meropenem (1:1)) and 4 µg/mL in assay [3] (Compounds + sulbactam (1:1)).

In the case of `C[C@]1(/C=N/NC(=O)C2CCN(C(=O)c3ccc(O)c(O)c3Cl)CC2)[C@H](C(=O)O)N2C(=O)C[C@H]2S1(=O)=O` [Example 42, (2S,3R,5R)-3-((E)-(2-(1-(2-chloro-3,4-dihydroxybenzoyl)piperidine-4-carbonyl)hydrazono)methyl)-3-methyl-7-oxo-4-thia-1-azabicyclo[3.2.0]heptane-2-carboxylic acid 4,4-dioxide], the MIC was more than 128 µg/mL in [1]; more than 128 µg/mL in [2]; more than 128 µg/mL in [3]; 128 µg/mL (≈ 236 µM) in assay [4]; more than 128 µg/mL in [5]; more than 128 µg/mL in assay [6]. Further, the figures for the MIC in [7], in [8] and in assay [9] were 1 µg/mL (≈ 1.84 µM), more than 128 µg/mL and more than 128 µg/mL, respectively. The “MIC A.b TNP 41709” value in assay [1] (Compounds + meropenem (1:1)) amounted to 2 µg/mL; in assay [1] (Compounds + sulbactam (1:1)) it was 4 µg/mL. For the same compound, the “MIC A.b TNP 41708” value in assay [2] (Compounds + meropenem (1:1)) was found to be 2 µg/mL; in assay [2] (Compounds + sulbactam (1:1)), 8 µg/mL. The results for the “MIC A.b TNP 41704” value in [3] (Compounds + meropenem (1:1)) and in assay [3] (Compounds + sulbactam (1:1)) were 2 µg/mL and 8 µg/mL, respectively.

As to `C[C@]1(/C=N/NC(=O)[C@H](CO)NC(=O)c2ccc(O)c(O)c2Cl)[C@H](C(=O)O)N2C(=O)C[C@H]2S1(=O)=O` [Example 43, (2S,3R,5R)-3-((E)-(2-(2-(2-chloro-3,4-dihydroxybenzamido)-3-hydroxypropanoyl)hydrazono)methyl)-3-methyl-7-oxo-4-thia-1-azabicyclo[3.2.0]heptane-2-carboxylic acid 4,4-dioxide], the MIC in assay [1] was more than 128 µg/mL; in assay [2] it was more than 128 µg/mL; in assay [3], more than 128 µg/mL; in [4] it was more than 128 µg/mL; in assay [5], more than 128 µg/mL; in assay [7], 8 µg/mL (≈ 15.4 µM). Further, the minimum inhibitory concentration (MIC) in assay [8] and in assay [9] was more than 128 µg/mL each time. For the same compound, the “MIC A.b TNP 41709” value in assay [1] (Compounds + Imipenem (1:1)), in [1] (Compounds + meropenem (1:1)) and in assay [1] (Compounds + sulbactam (1:1)) was 4 µg/mL in each case. Besides, the “MIC A.b TNP 41708” value is 8 µg/mL in assay [2] (Compounds + Imipenem (1:1)), 4 µg/mL in assay [2] (Compounds + meropenem (1:1)) and 8 µg/mL in assay [2] (Compounds + sulbactam (1:1)). For the same compound, the “MIC A.b TNP 41704” value in [3] (Compounds + Imipenem (1:1)) was 8 µg/mL; in [3] (Compounds + meropenem (1:1)), 4 µg/mL; in assay [3] (Compounds + sulbactam (1:1)) it was 4 µg/mL.

Consider `C[C@]1(/C=N/NC(=O)CCNC(=O)c2ccc(O)c(O)c2Cl)[C@H](C(=O)O)N2C(=O)C[C@H]2S1(=O)=O` [Example 60, (2S,3R,5R)-3-((E)-(2-(3-(2-chloro-3,4-dihydroxybenzamido)propanoyl)hydrazono)methyl)-3-methyl-7-oxo-4-thia-1-azabicyclo[3.2.0]heptane-2-carboxylic acid 4,4-dioxide], for which the minimum inhibitory concentration (MIC) in [1] is more than 128 µg/mL; in assay [2], more than 128 µg/mL; in assay [3], 64 µg/mL; in [4] it was more than 128 µg/mL; in assay [5] it was more than 128 µg/mL; in assay [6], more than 128 µg/mL. The figures for the minimal inhibitory concentration (MIC) in [7], in assay [8] and in assay [9] were 2 µg/mL (≈ 3.98 µM), more than 128 µg/mL and 16 µg/mL (≈ 31.8 µM), respectively. In addition, the “MIC A.b TNP 41709” value in assay [1] (Compounds + Imipenem (1:1)) came out at 1 µg/mL; in assay [1] (Compounds + meropenem (1:1)), 2 µg/mL; in [1] (Compounds + sulbactam (1:1)), 8 µg/mL. For the same compound, the “MIC A.b TNP 41708” value was 2 µg/mL in assay [2] (Compounds + Imipenem (1:1)), 2 µg/mL in assay [2] (Compounds + meropenem (1:1)) and 8 µg/mL in assay [2] (Compounds + sulbactam (1:1)). The “MIC A.b TNP 41704” value in [3] (Compounds + Imipenem (1:1)) worked out at 2 µg/mL; in assay [3] (Compounds + meropenem (1:1)), 2 µg/mL; in [3] (Compounds + sulbactam (1:1)) it was 1 µg/mL.

Usually MIC stands for the lowest concentration that inhibits growth of the organism.
